Data taken from patent US7348427B2, “Antipathogenic benzamide compounds” (Genesoft Pharmaceuticals, Inc., priority 2001, dated 2008).
Converted amounts (≈) assume the structure as drawn.

Key:
E. faecalis ATCC 29212 = experiment: MIC, NCCLS broth microdilution assay; assay type: cell-based, Enterococcus faecalis; conditions: C = E. faecalis ATCC 29212
Procedure: (§1) Compounds according to this invention were screened for their in vitro activities against selected species of bacteria and fungi. The minimal inhibition concentration (MIC) of these compounds was determined using the National Committee for Clinical Laboratory Standards (NCCLS) broth microdilution assay in microtiter plates, as set forth in: (1) the guidelines of the National. Committee for Clinical Laboratory Standards (NCCLS) Document M7-A4 (NCCLS, 1997); (2) the guidelines of the National Committee for Clinical Laboratory Standards (NCCLS) Document M11-A4 (NCCLS, 1997); and (3) the guidelines and reference method of the National Committee for Clinical Laboratory Standards (NCCLS) Document M27-T (NCCLS, 1995). For antifungal assays, the method recommended in Murray, P R., 1995 Manual of Clinical Microbiology (ASM Press, Washington, D.C.), was employed.

S. pneumoniae ATCC 49619 = experiment: MIC, NCCLS broth microdilution assay; assay type: cell-based, Streptococcus pneumoniae; conditions: H = S. pneumoniae ATCC 49619
Procedure: as §1

[1] = system: Staphylococcus aureus (ATCC 13709, a methicillin sensitive strain (MSSA)); experiment: MIC, NCCLS broth microdilution assay; assay type: cell-based; conditions: E = S. aureus ATCC 13709
From the text: (§2) In vitro biological activity data were collected for a variety of microorganisms, including Bacillus cereus (ATCC 11778), Staphylococcus aureus (ATCC 27660, a methicillin resistant strain (MRSA); ATCC 13709, a methicillin sensitive strain (MSSA)); Streptococcus pneumoniae (ATCC 51422, a penicillin resistant strain (PRSP)), Enterococcus faecium (ATCC 51559, a vancomycin resistant strain (VRE)), and Staphylococcus epidermidis (ATCC 12228). Additionally, antifungal activity data were collected for Candida albicans (ATCC 38247).
as §1

[2] = system: Bacillus cereus (ATCC 11778); experiment: MIC, NCCLS broth microdilution assay; assay type: cell-based; conditions: A = B. cereus ATCC 11778
From the text: as §2, §1

[3] = system: Staphylococcus aureus (ATCC 27660, a methicillin resistant strain (MRSA)); experiment: MIC, NCCLS broth microdilution assay; assay type: cell-based; conditions: F = S. aureus ATCC 27660
From the text: as §2, §1

[4] = system: Candida albicans (ATCC 38247); experiment: Antifungal MIC assay; assay type: cell-based; conditions: B = C. albicans ATCC 38247
From the text: as §2, §1

[5] = Staphylococcus aureus, read-out: Minimum Inhibitory Concentration (MIC)

Row | SMILES | Minimum Inhibitory Concentration (MIC) (E. faecalis ATCC 29212) | Minimum Inhibitory Concentration (MIC) (S. pneumoniae ATCC 49619) | Minimum Inhibitory Concentration (MIC) [1] | Minimum Inhibitory Concentration (MIC) [2] | Minimum Inhibitory Concentration (MIC) [3] | Minimum Inhibitory Concentration (MIC) [4] | MIC (E. faecalis ATCC 29212; Enterococcus faecalis, ATCC29212, read-out: Minimum Inhibitory Concentration (MIC)) [µg/mL] | MIC (S. pneumoniae ATCC 49619; Streptococcus pneumoniae, ATCC49619, read-out: Minimum Inhibitory Concentration (MIC)) [µg/mL] | MIC [1, 5] [µg/mL] | MIC ([2]; Bacillus cereus, ATCC11778, read-out: Minimum Inhibitory Concentration (MIC)) [µg/mL] | MIC [3, 5] [µg/mL] | MIC ([4]; Candida albicans, ATCC38247, read-out: Minimum Inhibitory Concentration (MIC)) [µg/mL]
1 | Cn1cc(NC(=O)c2cc(NC(=O)c3cc(NC(=O)c4ccc(F)cc4F)c[nH]3)cn2C)cc1C(=O)NCCN1CCOCC1 [Compound A-1] | +++ (+++ = MIC ≦ 4) | +++ (+++ = MIC ≦ 4) | +++ (+++ = MIC ≦ 4) | +++ (+++ = MIC ≦ 4) | ++ (++ = 4 < MIC < 12) | >32 µg/mL |  |  |  |  |  | 
2 | C[C@@H]1CN(CCNC(=O)c2cc(NC(=O)c3cc(NC(=O)c4cc(NC(=O)c5ccc(F)cc5F)c[nH]4)cn3C)cn2C)C[C@H](C)O1 [Compound A-5] | +++ (+++ = MIC ≦ 4) | ++ (++ = 4 < MIC < 12) | +++ (+++ = MIC ≦ 4) | + (+ = 12 ≦ MIC ≦ 32) | +++ (+++ = MIC ≦ 4) | >32 µg/mL |  |  |  |  |  | 
3 | C[C@@H]1CCC[C@H](C)N1CCNC(=O)c1cc(NC(=O)c2cc(NC(=O)c3cc(NC(=O)c4ccc(F)cc4F)c[nH]3)cn2C)cn1C [Compound A-10] | ++ (++ = 4 < MIC < 12) | +++ (+++ = MIC ≦ 4) | +++ (+++ = MIC ≦ 4) | +++ (+++ = MIC ≦ 4) | +++ (+++ = MIC ≦ 4) | ++ (++ = 4 < MIC < 12) |  |  |  |  |  | 
4 | Cn1cc(NC(=O)c2cc(NC(=O)c3cc(NC(=O)c4ccc(F)cc4F)c[nH]3)cn2C)cc1C(=O)NCCCN1CCC(O)CC1 [Compound A-11] | + (+ = 12 ≦ MIC ≦ 32) | + (+ = 12 ≦ MIC ≦ 32) | ++ (++ = 4 < MIC < 12) | + (+ = 12 ≦ MIC ≦ 32) | + (+ = 12 ≦ MIC ≦ 32) | + (+ = 12 ≦ MIC ≦ 32) |  |  |  |  |  | 
5 | CN(C)CC(C)(C)CNC(=O)c1cc(NC(=O)c2cc(NC(=O)c3cc(NC(=O)c4ccc(Cl)cc4F)c[nH]3)cn2C)cn1C [Compound A-14] | +++ (+++ = MIC ≦ 4) | +++ (+++ = MIC ≦ 4) | +++ (+++ = MIC ≦ 4) | +++ (+++ = MIC ≦ 4) | +++ (+++ = MIC ≦ 4) | + (+ = 12 ≦ MIC ≦ 32) |  |  |  |  |  | 
6 | CN(C)CCCCNC(=O)c1cc(NC(=O)c2cc(NC(=O)c3cc(NC(=O)c4ccc(Cl)cc4F)c[nH]3)cn2C)cn1C [Compound A-15] | +++ (+++ = MIC ≦ 4) | +++ (+++ = MIC ≦ 4) | +++ (+++ = MIC ≦ 4) | +++ (+++ = MIC ≦ 4) | +++ (+++ = MIC ≦ 4) | + (+ = 12 ≦ MIC ≦ 32) |  |  |  |  |  | 
7 | Cn1cc(NC(=O)c2cc(NC(=O)c3ccc(Cl)cc3F)c[nH]2)cc1C(=O)NCCN1CCOCC1 [Compound A-17] |  |  |  |  |  |  | ≤ 4 | ≤ 4 | 4 to 12 (≈ 7.74 to 23.2 µM) | 12 to 32 (≈ 23.2 to 61.9 µM) | 4 to 12 (≈ 7.74 to 23.2 µM) | > 32
8 | Cn1cc(NC(=O)c2cc(NC(=O)c3ccc(Cl)cc3F)c[nH]2)cc1C(=O)NCCN1CCCC1 [Compound A-19] | +++ (+++ = MIC ≦ 4) | +++ (+++ = MIC ≦ 4) | ++ (++ = 4 < MIC < 12) | + (+ = 12 ≦ MIC ≦ 32) | +++ (+++ = MIC ≦ 4) | >32 µg/mL |  |  |  |  |  | 
9 | CCN(CC)CCNC(=O)c1cc(NC(=O)c2cc(NC(=O)c3ccc(Cl)cc3F)c[nH]2)cn1C [Compound A-20] | +++ (+++ = MIC ≦ 4) | +++ (+++ = MIC ≦ 4) | ++ (++ = 4 < MIC < 12) | + (+ = 12 ≦ MIC ≦ 32) | ++ (++ = 4 < MIC < 12) | >32 µg/mL |  |  |  |  |  | 
10 | Cn1cc(NC(=O)c2cc(NC(=O)c3ccc(Cl)cc3F)c[nH]2)cc1C(=O)NCCN1CCC(O)CC1 [Compound A-23] | + (+ = 12 ≦ MIC ≦ 32) | +++ (+++ = MIC ≦ 4) | + (+ = 12 ≦ MIC ≦ 32) | + (+ = 12 ≦ MIC ≦ 32) | + (+ = 12 ≦ MIC ≦ 32) | >32 µg/mL |  |  |  |  |  | 
11 | Cn1cc(NC(=O)c2cc(NC(=O)c3cc(NC(=O)c4ccc(Cl)cc4F)c[nH]3)cn2C)cc1C(=O)NCCc1cccnc1 [Compound A-24] | ++ (++ = 4 < MIC < 12) | +++ (+++ = MIC ≦ 4) | >32 µg/mL | +++ (+++ = MIC ≦ 4) | +++ (+++ = MIC ≦ 4) | >32 µg/mL |  |  |  |  |  | 
12 | Cn1cc(NC(=O)c2cc(NC(=O)c3ccc(Cl)cc3F)c[nH]2)cc1C(=O)NCCc1ccncc1 [Compound A-25] | +++ (+++ = MIC ≦ 4) | +++ (+++ = MIC ≦ 4) | +++ (+++ = MIC ≦ 4) | ++ (++ = 4 < MIC < 12) | +++ (+++ = MIC ≦ 4) | >32 µg/mL |  |  |  |  |  | 
13 | Cn1cc(NC(=O)c2cc(NC(=O)c3cc(NC(=O)c4cc(NC(=O)c5ccc(Cl)cc5F)c[nH]4)cn3C)cn2C)cc1C(=O)NCCN1CCOCC1 [Compound A-27] | ++ (++ = 4 < MIC < 12) | +++ (+++ = MIC ≦ 4) | + (+ = 12 ≦ MIC ≦ 32) | +++ (+++ = MIC ≦ 4) | + (+ = 12 ≦ MIC ≦ 32) | >32 µg/mL |  |  |  |  |  | 
14 | Cn1cc(NC(=O)c2cc(NC(=O)c3cc(NC(=O)c4ccccc4Cl)cn3C)cn2C)cc1C(=O)NCCN1CCOCC1 [Compound B-60] | + (+ = 12 ≦ MIC ≦ 32) | + (+ = 12 ≦ MIC ≦ 32) |  | + (+ = 12 ≦ MIC ≦ 32) |  | >32 µg/mL |  |  |  |  |  | 
15 | Cn1cc(NC(=O)c2cc(NC(=O)c3cc(NC(=O)c4cccc(C(F)(F)F)c4)cn3C)cn2C)cc1C(=O)NCCN1CCOCC1 [Compound B-70] | ++ (++ = 4 < MIC < 12) | + (+ = 12 ≦ MIC ≦ 32) |  | + (+ = 12 ≦ MIC ≦ 32) |  | >32 µg/mL |  |  |  |  |  | 
16 | Cn1cc(NC(=O)c2cc(NC(=O)c3cc(NC(=O)c4ccc(C(F)(F)F)cc4)cn3C)cn2C)cc1C(=O)NCCN1CCOCC1 [Compound B-71] | ++ (++ = 4 < MIC < 12) | +++ (+++ = MIC ≦ 4) |  | + (+ = 12 ≦ MIC ≦ 32) |  | >32 µg/mL |  |  |  |  |  | 
